Data on one compound can be found in patent publication US20200181284A1, “EPIGENETIC INHIBITORS FOR SENSITIZING HEMATOLOGIC OR OTHER MALIGNANCIES TO GLUCOCORTICOID THERAPY” (UNIVERSITY OF SOUTHERN CALIFORNIA, priority 2017, published 2020).

In one series the test system is NALM-6 cells. In words: shRNA screen: selection of infected NALM-6 cells with dex, viability after each round. Type of series: cell-based, human. To be noted: for viability at 0.05 µM: Homo sapiens, 50 nM dexamethasone. Here is the method: Transduction: NALM-6 cells were grown in T-175 flasks maintaining a cell density below 2 million cells/ml until a sufficient number of cells were obtained. In order to obtain a sufficient number of cells infected with each shRNA to measure both enrichment and depletion in response to dex selection, we sought to infect >1000 cells with each shRNA. In order to minimize double infection, we targeted an infection rate of ˜30%. For the Cancer library, we estimated that for 1000× coverage of 54,775 shRNAs at a 30% infection rate, we would have to start with ˜200 million cells. To ensure optimal infection, NALM-6 cells were plated at density of 1.5 million cells/ml in 6 well plates. Virus was added at a ratio of 1:10 viral supernatant/NALM-6 culture volume. Cells were the spinfected at 1000×g, 33° C., for 2 hours in the presence of 8 µg/ml polybrene. Cells were then washed in PBS, resuspended in fresh RPMI+10% FBS, and allowed to recover. Our actual infection rate was ˜70%, as measured by flow cytometry using the mCherry marker of the pMK1098 vector, for an approximate coverage of 2000 cells for each shRNA. Cells were then selected for infection using 0.5 µg/ml puromycin for 2 days, washed, and allowed to recover. The infected cells were then expanded and split into 5 pools: Infected (Time 0 or T0), Infected that would be untreated (TF), and three pools that would be treated with dex (R1-3). T0 and TF was composed of 100 million cells. T0 was frozen immediately, and TF was allowed to grow to a density no greater than 3 million cells/ml through the course of the experiment. Since we expected ˜80% death upon treatment, we started with 500 million cells each for R1-3.
Selection: Previous attempts at the screen had been hampered by inconsistent infection and selection with dex. We therefore decided to split TF and R1-3 into two experiments and treat with 50 nM dex, which kills ˜80% of NALM-6 cells in 3 days, and 1 pM dex, which kills >90%. TF samples were treated with equal volumes of DMSO vehicle. A separate TF sample was culture for both the 50 nM and 1 pM experiments. Cells were treated with each of these concentrations for three days, washed, allowed to recover, then treated two more times. From infection to the end of the experiment took 35 days for 50 nM dex and 46 days for 1 pM.
AGEK Screen: Based on the results of the Cancer panel screen, we elected to screen the three other panels (Apoptosis, Gene Expression, Kinases) under 50 nM selection by dex. The screen was performed largely as described above, but our infection rate was <30% for a coverage of ˜900 cells/shRNA.

Series [1] concerns relapsed B-ALL cells (ALL121). Put plainly: PDX model of ALL: NSG mice engrafted with ALL121, spleen size and human ALL cells in spleen. The format is in vivo. Conditions: dex monotherapy 7.5 mg/kg daily, two weeks.
Text: As proof of concept, we tested this combination in a PDX model of ALL.
For series [2], the system named is LAX7R and LAX56 primary human B-ALL cells. Put plainly: Survival of primary B-ALL cells co-cultured with OP-9 feeder cells (Annexin V/7AAD). The format is cell-based. Conditions: 100-200 nM Dex alone, 3 or 5 days. Here is the method: Primary ALL cells (LAX7R and LAX56) were established from mouse xenografts derived from patient samples (Adam et al., 2017; Hsieh et al., 2013). They were cultured in 24 well tissue-culture plates on irradiated OP-9 cells with growth medium containing MEM-α with 20% heat-inactivated fetal bovine serum, and 100 IU/ml penicillin and 100 μg/ml streptomycin. On day 3 and day 5 after the addition of drugs, ALL cells were collected, and apoptosis was assessed using PE Annexin V Apoptosis Detection Kit with 7-AAD.
As shown FIGS. 41A-1, 41A-2, 41B-1, and 41B-2, LAX7R (FIGS. 41A-1 and 41A-2) or LAX56 (FIGS. 41B-1 and 41B-2) primary human B-ALL cells were co-cultured with OP-9 feeder cells for 3 days (left) or 5 days (right) in the presence of the indicated drugs, and cell survival was determined by staining with Annexin/7AAD. p-value was calculated using a paired t-test, and different symbols were used to indicate p-values between different groups.+indicates statistical significance (+p≤0.05, ++p≤0.01 and + + + p≤0.001) between Dexamethasone or AZD2811 treated group and DMSO control group; # indicates statistical significance (#p≤0.05, ##p≤0.01 and # # # p≤0.001) between AZD2811+Dexamethasone combination group and AZD2811 group; * indicates statistical difference (*p≤0.05, **p≤0.01, * * *p≤0.001) between combination group and respective Dexamethasone treated groups. Values shown are mean and SD for 3 biological replicates, which are representative of 3 independent experiments.

The next series relates to NALM-6. Put plainly: Cell death assay (PrestoBlue viability, 3 days). The format is cell-based. Conditions: Homo sapiens. How it is done: Cell death assays: We used PrestoBlue to measure cell viability in response to knockdown and treatment. Cells were grown to a density of 250,000 cell/ml, then dispensed into black tissue culture plates and grown overnight. In the morning, cells were treated. For both CAL-101 (Selleckchem, S2226) and dex (Sigma, D4902), viability was measured after 3 days. As PrestoBlue measures NADPH/NADH metabolites, the balance of which can be affected by GC treatment, we performed frequent cell count spot checks manually by trypan blue exclusion to ensure that fluorescence measurements reflected true viability. Both CAL-101 and dex were dissolved in ethanol, and used 1:1000 in cell culture for a final ethanol concentration of 0.1%. […] Viabilities and EC50 were then calculated using four parameter non-least squares fitting using Prism 6. qPCR of Causative genes: Cells were grown to a density of 1 million cells/ml, then aliquoted into 6 well plates in the afternoon, then grown overnight. […]
The optimal signal was determined by incubating cells with 1 ^M dex for 0, 4, 8, and 24 hours. […] Each experiment was performed at least three times, and analyzed using GraphPad (Prism 6). Significant differences between drug and control and between either drug alone and combinations was determined by two sided Student's t-test (P-Value<0.05). […]

A further series concerns SUP-B15. Put plainly: Cell death assay (PrestoBlue viability, 3 days). Type of series: cell-based, human. Conditions: Homo sapiens. How it is done:
(§1) Cell death assays: We used PrestoBlue to measure cell viability in response to knockdown and treatment. Cells were grown to a density of 250,000 cell/ml, then dispensed into black tissue culture plates and grown overnight. In the morning, cells were treated. For both CAL-101 (Selleckchem, S2226) and dex (Sigma, D4902), viability was measured after 3 days. As PrestoBlue measures NADPH/NADH metabolites, the balance of which can be affected by GC treatment, we performed frequent cell count spot checks manually by trypan blue exclusion to ensure that fluorescence measurements reflected true viability. Both CAL-101 and dex were dissolved in ethanol, and used 1:1000 in cell culture for a final ethanol concentration of 0.1%. Combination treatments were performed in triplicate in 384 well plates with 20 dilutions of dex from 10^M to 0 and 9 dilutions of CAL-101 from 10^M to 0. Viabilities and EC50 were then calculated using four parameter non-least squares fitting using Prism 6. qPCR of Causative genes: Cells were grown to a density of 1 million cells/ml, then aliquoted into 6 well plates in the afternoon, then grown overnight. Cells were then treated with the drugs and times indicated, at which point cells were spun down at 400 g for 5 minutes, the medium aspirated, and the pellet resuspended in 0.7 ml Qiazol/Trizol and frozen. RNA was then isolated using the miRNAeasy protocol. cDNA was then prepared form 1^g of RNA suing SuperScript3, and qPCR performed using BioRad iQ mix. Primers for qPCR were designed using the IDT web site, then tested for each gene. […] Expression levels for each gene were corrected for primer efficiency, normalized to RPL19, then compared to controls (Pfaffl, 2001).
(§2) The optimal signal was determined by incubating cells with 1 ^M dex for 0, 4, 8, and 24 hours. […] Cells were incubated with dex alone, CAL-101 alone, and in combination for 24 hours, then harvested and qPCR performed as described above. Each experiment was performed at least three times, and analyzed using GraphPad (Prism 6). Significant differences between drug and control and between either drug alone and combinations was determined by two sided Student's t-test (P-Value<0.05).
(§3) Three cell lines (NALM6, SUP-B15, and RCH-ACV), one resistant patient sample (HM3101), and one relapsed Phlike xenograft (ALL121) were incubated with increasing concentrations of dex or CAL-101 for 3 days. Cell viability was measured by PrestoBlue staining. Curves, values, and errors are based on at least 3 replicates. Bar plot of the EC50, calculated by four-parameter least-squares fitting (Both plotted and calculated in GraphPad Prism).

For another series, the system named is RCH-ACV. In words: Cell death assay (PrestoBlue viability, 3 days). Type of series: cell-based, human. How it is done:
as §1, §2, §3

A word on the viability: it is a per cent measure of how many cells are alive, often set against a control. Read a high viability as better survival. Usually EC50 stands for the concentration giving half of the maximal effect. As usually defined, the EC90 is the concentration needed for an effect of 90%. On to `C[C@@H]1C[C@H]2[C@@H]3CCC4=CC(=O)C=C[C@]4(C)[C@@]3(F)[C@@H](O)C[C@]2(C)[C@@]1(O)C(=O)CO` [dex, dexamethasone], for which the NALM-6 cells killed was > 90% in the series on NALM-6 cells (1 pM dex) and ~80% with NALM-6 cells (50 nM dex, 3 days). Moreover, the viability at 0.05 µM was 52% in the series on NALM-6 cells (NALM-6, Apoptosis, Gene Expression, and Kinase Panels, treatment number 1); 66% in the series with NALM-6 cells (NALM-6, Apoptosis, Gene Expression, and Kinase Panels, treatment number 2); 65% with NALM-6 cells (NALM-6, Apoptosis, Gene Expression, and Kinase Panels, treatment number 3); 18% in the series with NALM-6 cells (NALM-6, Cancer Panel, treatment number 1); 72% with NALM-6 cells (NALM-6, Cancer Panel, treatment number 2); 58% in the series on NALM-6 cells (NALM-6, Cancer Panel, treatment number 3). The “effect on spleens (spleen size)” value in series [1] was “no effect”. The cell survival in series [2] is 20-60%. Besides, the EC50 in the series with NALM-6 (NALM-6, 72 h, NALM6, viability after 3 days, read-out: EC50 for dex) was 3.9 nM; in the series with SUP-B15 (72 h, SUP-B15, viability after 3 days, read-out: EC50 for dex), 1.6 nM; in the series on RCH-ACV (Homo sapiens, 72 h, viability after 3 days, estimate, read-out: EC50 for dex), 500 nM. Further, the EC90 in the series on NALM-6 (NALM-6, read-out: approximately the EC90 for dex) is ~62.5 nM; in the series on SUP-B15 (SUP-B15, read-out: approximately the EC90 for dex), ~4 nM. In addition, the viability maintained in the series on RCH-ACV (even at the highest dex concentrations) is on record as ~50%.
